Measurements as given in US4027024A (priority 1972, dated 1977).

Key:
rats [1] = test: hot plate test on rats, analgesic effect (Tables 1 and 2); format: in vivo
Protocol: Examination of PROBON'S potentiating effect upon
azidomorphine and azidocodeine, carried out on rats, by
hot plate test, compared with Algopyrine. The compounds
were administered s.c. (subcutaneously).
Examination of the potentiating effect of a few
homopyrimidazole derivatives upon axidomorphine or
azidocodeine, carried out on rats, by Hot plate test, the
compounds were administered s.c.

rats [2] = test: algolytic test, analgesia evaluated by pain score scale (Table A); format: in vivo; details: for Pain units: pretr. time 1 hour, alone
rats [3] = details: rat, in vivo; for analgesic effect of the component per se (in words): sc
rats [4] = details: rat, in vivo
[5] = modified hot plate test, duration of effect; format: in vivo; details: azidocodeine alone

CCOC(=O)C1CN(C)C2CCCC(C)N2C1=O (stereo not shown) [MZ-170, 1,6-dimethyl-3-carbethoxy-4-oxo-1,2,3,6,7,8,9,10-octahydro-homopyrimidazole]
Analgesic effect, Hot plate test (rats [1]; 300 mg/kg s.c., alone): 31%

CCOC(=O)c1c[n+](C)c2n(c1=O)C(C)CCC2 (stereo not shown) [MZ-144, 1,6-dimethyl-3-carbethoxy-4-oxo-6,7,8,9-tetrahydro-homopyrimidazolium-methosulphate]
Pain units (rats [2]; MZ-144 300 mg/kg p.o.): 75 Pain units
Analgesic effect, Hot plate test (rats [1]; 50 mg/kg s.c., alone): 38%
Analgesic effect, algolytic test (rats [3]): 59%
analgesic effect of the component per se (in words) (rats [3]): ineffective
Prolongation of narcotic period (rats [4]): 571%

CCOC(=O)C1=CN(C)C2CCCC(C)N2C1=O (stereo not shown) [MZ-168, 1,6-dimethyl-3-carbethoxy-4-oxo-1,6,7,8,9,10-hexahydro-homopyrimidazole]
Analgesic effect, Hot plate test (rats [1]; 50 mg/kg s.c., alone): 23%

CCOC(=O)c1cnc2n(c1=O)C(C)CCC2 (stereo not shown) [MZ-108, 3-carbethoxy-4-oxo-6-methyl-6,7,8,9-tetrahydro-homopyrimidazole]
Analgesic effect, Hot plate test (rats [1]; 200 mg/kg s.c., alone): 18%
Analgesic effect, algolytic test (rats [3]): 31%

Cc1c(N(C)CS(=O)(=O)O)c(=O)n(-c2ccccc2)n1C [Algopyrin, 2,3-dimethyl-4-methylamino-1-phenyl-5-pyrazolon-N-methane-sulfonic acid, reference compound]
Analgesic effect, Hot plate test (rats [1]; 150 mg/kg s.c., alone): 33%
Analgesic effect, Hot plate test (rats [1]; 200 mg/kg s.c., alone): 49%
Analgesic effect, Hot plate test (rats [1]; AP 150 mg/kg s.c., AM --, AK dose left blank): 29%
analgesic potency relative to Probon (in words) (rats [1]; Hot plate test, rats, s.c.): equipotent with Probon
effect on analgesic effect of azidomorphine or azidocodeine (in words) (rats [1]; Hot plate test, rats, s.c.): does not increase the analgesic effect

O=C(CCCN1CCC(O)(c2ccc(Cl)cc2)CC1)c1ccc(F)cc1 [haloperidol, reference compound]
Prolongation of narcotic period (rats [4]): 255%

COc1ccc2c3c1O[C@H]1[C@H](N=[N+]=[N-])CC[C@H]4[C@@H](C2)N(C)CC[C@@]341 [Azidocodeine]
Pain units (rats [2]; Azidocodeine 30 mg/kg p.o.): 87 Pain units
Pain units (rats [2]; Azidocodeine 45 mg/kg p.o.): 38 Pain units
Pain units (rats [2]; Azidocodeine 60 mg/kg p.o.): 30 Pain units
ED50 in the algolytic test (rats [2]; azidocodeine alone, from diagram plotted from Table A): 32 mg/kg
duration of the effect [5]: 2 to 2.5 h
Analgesic effect, Hot plate test (rats [1]; AK 0.250 mg/kg s.c., alone): 16%

CN1CC[C@]23c4c5ccc(O)c4O[C@H]2[C@H](N=[N+]=[N-])CC[C@H]3[C@H]1C5 [Azidomorphine]
Analgesic effect, Hot plate test (rats [1]; AM 0.015 mg/kg s.c., alone): 22%
analgesic effect of the component per se (in words) (rats [3]): ineffective

CC1CCCc2n1c(=O)c(C(=O)[O-])c[n+]2C (stereo not shown) [MZ-211, 1,6-dimethyl-4-oxo-6,7,8,9-tetrahydro-homopyrimidazole-3-carboxylic acid]
Analgesic effect, Hot plate test (rats [1]; 50 mg/kg s.c., alone): 38%
Analgesic effect, algolytic test (rats [3]): 15%
